According to PMC10518255, “A first-in-class pan-lysyl oxidase inhibitor impairs stromal remodeling and enhances gemcitabine response and survival in pancreatic cancer” (Nature Cancer, 2023):
Several values for one entry are separate records, joined by “and”; a condition that tells them apart may be missing. Equal entries are not always repeated.

Key:
DAO = target: T1, DAO (Homo sapiens, UniProt P19801); test: IC50 determination against other human amine oxidases; format: biochemical
T1 sequence (P19801 20-751): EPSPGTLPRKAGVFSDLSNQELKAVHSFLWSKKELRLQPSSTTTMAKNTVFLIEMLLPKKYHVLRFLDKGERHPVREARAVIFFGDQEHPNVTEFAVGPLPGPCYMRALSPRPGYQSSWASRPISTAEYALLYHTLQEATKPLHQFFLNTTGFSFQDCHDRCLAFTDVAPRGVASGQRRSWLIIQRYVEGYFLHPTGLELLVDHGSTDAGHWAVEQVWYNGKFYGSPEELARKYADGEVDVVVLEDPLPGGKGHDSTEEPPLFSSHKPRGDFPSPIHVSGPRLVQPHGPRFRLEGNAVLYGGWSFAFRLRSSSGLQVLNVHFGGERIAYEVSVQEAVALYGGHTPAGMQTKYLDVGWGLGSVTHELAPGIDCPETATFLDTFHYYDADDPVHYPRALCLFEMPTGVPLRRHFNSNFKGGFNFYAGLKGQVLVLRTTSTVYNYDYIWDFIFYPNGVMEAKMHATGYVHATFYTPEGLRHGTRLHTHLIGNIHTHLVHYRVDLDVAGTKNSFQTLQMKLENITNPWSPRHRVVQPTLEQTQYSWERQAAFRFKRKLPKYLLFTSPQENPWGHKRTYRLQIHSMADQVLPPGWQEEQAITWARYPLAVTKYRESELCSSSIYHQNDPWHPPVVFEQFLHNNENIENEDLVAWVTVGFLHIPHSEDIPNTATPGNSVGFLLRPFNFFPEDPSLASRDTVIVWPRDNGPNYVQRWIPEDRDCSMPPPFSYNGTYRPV
Excerpt: (§1) Data are presented as mean ± s.d. […] Data presented as mean ± s.d. […] Source data TEXT PRINTED IN THE PICTURE: (b) PXS-5505: Recombinant DAO IC50 (nM): >30,000; Recombinant SSAO/VAP1 IC50 (nM): >30,000; Recombinant MAO-A IC50 (nM): >30,000; Recombinant MAO-B IC50 (nM): >30,000 | (f) PXS-5505: Fibroblast LOX IC50 (nM): 4,930; Recombinant LOXL-1 IC50 (nM): 1,590; Recombinant LOXL-2 IC50 (nM): 570; Recombinant LOXL-3 IC50 (nM): 1,800; Recombinant LOXL-4 IC50 (nM): 190

Recombinant MAO-A = Recombinant MAO-A (Homo sapiens, UniProt P21397); test: as above; format: biochemical
Excerpt: as §1

Recombinant MAO-B = Recombinant MAO-B (Homo sapiens, UniProt P27338); test: as above; format: biochemical
Excerpt: as §1

Recombinant SSAO/VAP1 = Recombinant SSAO/VAP1 (Homo sapiens, UniProt Q16853); test: as above; format: biochemical
Excerpt: as §1

KPC CAFs = test: 3D cell viability assay (MTS, collagen); format: cell-based, mouse; details: for 3D cell viability (MTS assay): replicates
Experimental: (§2) The 3D cell viability assays were performed using cells embedded into polymerized collagen at 2.5 mg ml^−1. KPC CAFs and CCs were seeded at 10,000 cells per well in a 96-well plate. MTS solution (Promega) was added to the cells at a 1:20 dilution and cells were incubated at 37 °C for 1.5 h. Cell proliferation rates were measured by detecting the absorbance at 490 nm using a microplate reader and three biological repeats were performed.
(§3) Data presented as mean values +/− SD. f. […] Data presented as mean values +/− SD. […] Data presented as mean values +/− SD. […] Data presented as mean values +/− SD. Ordinary one-way ANOVA for multiple comparison test performed. Source data

[1] = 3D cell viability assay (MTS, collagen); format: cell-based, mouse; details: mouse, replicates
Experimental: as §2, §3

KPC CCs = test: 3D cell viability assay (MTS, collagen); format: cell-based, mouse; details: for 3D cell viability (MTS assay): KPC CC, replicates
Experimental: as §2, §3

[2] = test system: collagen crosslinks (DHLNL, Pyr) in KPC CAF organotypic matrices; test: Collagen crosslink quantification by LC-MS in organotypic matrices; format: cell-based, mouse
Experimental: Fig. 3 PXS-5505 inhibition of CAF remodeling in vitro. a, Quantitative PCR with reverse transcription (qRT–PCR) showing in vitro comparison of KPC CAF relative expression of lysyl oxidase family members compared to KPC CCs from the same model (n = 3 biologically independent samples). Comparisons were determined by 2^–∆∆Ct approach. b, Representative images of 3D organotypic matrix contraction assay at days 2, 6 and 12 in the absence (gray) or presence (pink) of PXS-5505 (30 µM). Scale bars, 5 mm. Comparison of measured area of matrices between control and PXS-5505 treatment groups over time (n = 3 technical samples examined over three biologically independent samples). Data are mean ± s.d. c, Concentration of immature divalent DHLNL and mature trivalent Pyr collagen crosslinks determined by LC–MS from control and PXS-5505-treated organotypic matrices at day 12 ([…]). Data are mean ± s.d. […] Data are presented as mean ± s.d. […] Comparison of number of CCs invaded per field of view (FOV) as determined by H&E and PanCK staining (nine images taken from three technical samples from each of three biologically independent contracted matrices), normalized to control. Data are mean ± s.d. Scale bars, 100 μm. […] Source data
KPC CAFs embedded in 3D organotypic matrices remodel and crosslink them.
Collagen matrices were freeze dried and reduced with NaBH4. The resulting pellet was hydrolyzed with 6 mol l^−1 HCl at 100 °C for 24 h. An automated solid phase extraction system (Gilson GX-271 ASPECA system) was used to extract hydroxyproline and crosslinks from the hydrolysate. The samples were analyzed for hydroxyproline crosslinks by a UHPLC–ESI–MS/MS on a Thermo Dionex UPHPLC and TSQ Endura triple quadmass spectrometer as previously published. The lower limit of detection was 0.013 pmol 10 µl^−1.

[3] = LC/MS, organotypic matrices at day 12, single replicates (3 biological x 2 technical)
[4] = day 12, normalized to total collagen content

Recombinant MAO-A, sequence (P21397 whole entry): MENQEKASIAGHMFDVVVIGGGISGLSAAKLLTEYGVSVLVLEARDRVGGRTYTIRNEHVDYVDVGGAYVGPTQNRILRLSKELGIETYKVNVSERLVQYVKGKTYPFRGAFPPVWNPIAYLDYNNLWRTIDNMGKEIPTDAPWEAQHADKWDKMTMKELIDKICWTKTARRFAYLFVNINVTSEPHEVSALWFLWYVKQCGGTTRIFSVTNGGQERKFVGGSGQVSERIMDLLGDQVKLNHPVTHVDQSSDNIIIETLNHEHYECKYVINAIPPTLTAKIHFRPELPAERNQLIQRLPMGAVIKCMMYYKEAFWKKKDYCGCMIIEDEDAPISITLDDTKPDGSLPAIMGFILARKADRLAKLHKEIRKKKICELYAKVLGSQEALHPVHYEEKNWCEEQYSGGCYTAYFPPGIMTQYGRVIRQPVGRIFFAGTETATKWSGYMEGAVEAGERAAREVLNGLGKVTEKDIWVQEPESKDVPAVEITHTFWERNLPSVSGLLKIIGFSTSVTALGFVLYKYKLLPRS
Recombinant MAO-B, sequence (P27338 whole entry): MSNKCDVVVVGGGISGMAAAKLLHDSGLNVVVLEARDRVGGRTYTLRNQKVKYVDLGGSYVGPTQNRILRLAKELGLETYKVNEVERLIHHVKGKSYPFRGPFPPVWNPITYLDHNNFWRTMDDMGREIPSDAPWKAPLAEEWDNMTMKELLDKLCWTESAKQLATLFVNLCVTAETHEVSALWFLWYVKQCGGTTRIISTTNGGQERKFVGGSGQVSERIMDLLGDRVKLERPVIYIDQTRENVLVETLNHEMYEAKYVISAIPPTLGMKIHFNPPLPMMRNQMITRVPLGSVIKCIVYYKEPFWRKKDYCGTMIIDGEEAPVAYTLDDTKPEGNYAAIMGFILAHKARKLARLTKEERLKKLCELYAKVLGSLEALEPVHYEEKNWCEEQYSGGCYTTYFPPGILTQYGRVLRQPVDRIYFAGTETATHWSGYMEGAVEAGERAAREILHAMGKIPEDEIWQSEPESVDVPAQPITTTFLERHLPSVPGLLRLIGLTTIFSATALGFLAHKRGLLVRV
Recombinant SSAO/VAP1, sequence (Q16853 whole entry): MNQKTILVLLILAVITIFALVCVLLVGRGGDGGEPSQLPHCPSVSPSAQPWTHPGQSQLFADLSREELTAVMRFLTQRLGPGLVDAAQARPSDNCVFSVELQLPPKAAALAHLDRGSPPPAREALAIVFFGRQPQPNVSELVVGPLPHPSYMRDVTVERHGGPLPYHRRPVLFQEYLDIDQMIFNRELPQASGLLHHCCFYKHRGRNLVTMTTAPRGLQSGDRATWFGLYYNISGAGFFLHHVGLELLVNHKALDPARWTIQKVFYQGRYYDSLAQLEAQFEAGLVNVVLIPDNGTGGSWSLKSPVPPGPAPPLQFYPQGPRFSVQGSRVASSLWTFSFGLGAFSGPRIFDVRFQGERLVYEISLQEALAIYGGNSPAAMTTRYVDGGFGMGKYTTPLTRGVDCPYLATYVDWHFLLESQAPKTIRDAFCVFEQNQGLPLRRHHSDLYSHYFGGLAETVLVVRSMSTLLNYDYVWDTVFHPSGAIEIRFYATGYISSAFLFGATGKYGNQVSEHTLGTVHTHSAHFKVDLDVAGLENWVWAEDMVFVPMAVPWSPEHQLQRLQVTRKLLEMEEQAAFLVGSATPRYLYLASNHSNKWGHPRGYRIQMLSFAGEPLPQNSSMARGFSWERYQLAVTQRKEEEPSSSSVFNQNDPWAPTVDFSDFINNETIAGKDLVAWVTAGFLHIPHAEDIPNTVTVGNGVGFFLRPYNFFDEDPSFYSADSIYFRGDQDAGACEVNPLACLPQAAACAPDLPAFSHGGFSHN

Q: What does the source list for `Cl.Cl.NC/C=C(\F)CS(=O)(=O)c1cccc2cccnc12.O` [PXS-5505, (Z)-3-fluoro-4-(quinolin-8-ylsulfonyl)but-2-en-1-amine dihydrochloride monohydrate]?
A: IC50 (DAO): > 30 µM; IC50 (Recombinant MAO-A): > 30 µM; IC50 (Recombinant MAO-B): > 30 µM; IC50 (Recombinant SSAO/VAP1): > 30 µM; 3D cell viability (MTS assay) (KPC CAFs; PXS-5505 0.3 (unit not given)): 102.654 and 114.604 and 89.88; 3D cell viability (MTS assay) (KPC CAFs; PXS-5505 3 (unit not given)): 96.8872 and 86.2796; 3D cell viability (MTS assay) (KPC CAFs; PXS-5505 30 (unit not given)): 93.0804 and 86.6488; 3D cell viability (MTS assay) (KPC CAFs; PXS-5505 100 (unit not given)): 93.525 and 85.922; 3D cell viability (MTS assay) (KPC CAFs; PXS-5505 300 (unit not given)): 102.9 and 101.619 and 82.2294; effect on proliferation, 3D (KPC CAFs; up to 300 µM): nor did it show any effect on proliferation; viability ([1]; KPC CAFs embedded in polymerized collagen (3D), PXS-5505 3 (unit inferred)): 97.2%; viability ([1]; KPC CAFs embedded in polymerized collagen (3D), PXS-5505 30 (unit inferred)): 87.5%; viability ([1]; KPC CAFs embedded in polymerized collagen (3D), PXS-5505 100 (unit inferred)): 99%; viability ([1]; KPC cancer cells (CCs) embedded in polymerized collagen (3D), KPC CC, PXS-5505 0.3 (unit inferred)): 97.5%; viability ([1]; KPC cancer cells (CCs) embedded in polymerized collagen (3D), KPC CC, PXS-5505 3 (unit inferred)): 108%; viability ([1]; KPC cancer cells (CCs) embedded in polymerized collagen (3D), KPC CC, PXS-5505 30 (unit inferred)): 100%; viability ([1]; KPC cancer cells (CCs) embedded in polymerized collagen (3D), KPC CC, PXS-5505 100 (unit inferred)): 96.7%; 3D cell viability (MTS assay) (KPC CCs; PXS-5505 0.3 (unit not given)): 101.864 and 94.0126; 3D cell viability (MTS assay) (KPC CCs; PXS-5505 3 (unit not given)): 104.713 and 92.4708; 3D cell viability (MTS assay) (KPC CCs; PXS-5505 30 (unit not given)): 96.3592 and 91.3434; 3D cell viability (MTS assay) (KPC CCs; PXS-5505 100 (unit not given)): 92.997 and 88.536; 3D cell viability (MTS assay) (KPC CCs; PXS-5505 300 (unit not given)): 102.736 and 92.2188 and 80.3582; effect on proliferation, 3D (KPC CCs; KPC CCs, up to 300 µM): nor did it show any effect on proliferation; Concentration of immature divalent dihyroxylysinonorleucine (DHLNL) collagen cross-links [2, 3]: 2.81 pmol/mL and 3.555 pmol/mL and 2.615 pmol/mL and 4.105 pmol/mL and 3.075 pmol/mL and 4.4 pmol/mL; Concentration of mature trivalent hydroxylysylpyridinoline (Pyr, PYD) collagen cross-links [2, 3]: 4.5 pmol/mL and 5.52 pmol/mL and 3.85 pmol/mL and 8.4 pmol/mL and 6.325 pmol/mL and 6.2 pmol/mL; immature divalent DHLNL collagen crosslinks [2, 4]: decreases; mature trivalent Pyr collagen crosslinks [2, 4]: decreases
